# Experimental data from the SangsterLogP compilation.
# Test: method code SF-GLC, from DOI: 10.1016/0045-6535(89)90321-4
row,Compound,logP
1,Clc1cc(Cl)c2oc3c(Cl)c(Cl)cc(Cl)c3c2c1,6.24
2,Clc1cc(Cl)c2oc3cc(Cl)c(Cl)cc3c2c1,6.73
3,Clc1cc(Cl)c2c(c1)Oc1c(Cl)ccc(Cl)c1O2,6.25
4,Clc1cc(Cl)c2c(c1)Oc1cc(Cl)cc(Cl)c1O2,6.39
5,Clc1ccc(Cl)c2c1Oc1c(Cl)ccc(Cl)c1O2,6.38
6,Clc1ccc2c(c1)Oc1c(Cl)c(Cl)c(Cl)c(Cl)c1O2,6.6
7,Clc1ccc2c(c1)oc1c(Cl)c(Cl)cc(Cl)c12,6.23
8,Clc1cc2oc3c(Cl)cc(Cl)c(Cl)c3c2cc1Cl,6.26
9,Clc1ccc2c(oc3c(Cl)c(Cl)cc(Cl)c32)c1Cl,6.19
10,Clc1cc2c(oc3cccc(Cl)c32)c(Cl)c1Cl,6.17
11,Clc1cc(Cl)c2c(oc3cccc(Cl)c32)c1Cl,5.89
12,Clc1cc2c(c(Cl)c1Cl)Oc1c(Cl)cccc1O2,6.39
13,Clc1ccc2c(oc3c(Cl)cc(Cl)c(Cl)c32)c1Cl,6.27
14,Clc1cc2oc3c(Cl)c(Cl)ccc3c2c(Cl)c1Cl,6.26
15,Clc1ccc2c(c1)Oc1c(Cl)c(Cl)cc(Cl)c1O2,6.25
16,Clc1cc2c(c(Cl)c1Cl)Oc1cccc(Cl)c1O2,6.86
17,Clc1cc(Cl)c2c(c1Cl)Oc1c(Cl)cccc1O2,6.1
18,Clc1cc(Cl)c2c(c1Cl)Oc1c(Cl)cc(Cl)c(Cl)c1O2,6.85
19,Clc1cc2c(cc1Cl)Oc1c(Cl)c(Cl)cc(Cl)c1O2,6.2
20,Clc1cc2c(oc3c(Cl)ccc(Cl)c32)c(Cl)c1Cl,6.53
21,Clc1cc2oc3ccc(Cl)c(Cl)c3c2cc1Cl,6.23
22,Clc1cc(Cl)c2c(c1)Oc1c(ccc(Cl)c1Cl)O2,6.43
23,Clc1cc(Cl)c2oc3cc(Cl)c(Cl)c(Cl)c3c2c1,6.33
24,Clc1cc(Cl)c2c(c1)Oc1cc(Cl)c(Cl)c(Cl)c1O2,6.4
25,Clc1cc2c(cc1Cl)Oc1c(Cl)ccc(Cl)c1O2,6.39

row,Compound,logP
1,Clc1cc(Cl)c2c(c1)Oc1c(Cl)c(Cl)c(Cl)c(Cl)c1O2,6.85
2,Clc1cc(Cl)c2oc3c(Cl)ccc(Cl)c3c2c1Cl,6.59
3,Clc1cc2c(cc1Cl)Oc1c(cc(Cl)c(Cl)c1Cl)O2,6.64
4,Clc1ccc2oc3c(Cl)cc(Cl)c(Cl)c3c2c1,6.31
5,Clc1cc(Cl)c2oc3c(Cl)cc(Cl)c(Cl)c3c2c1,6.34
6,Clc1cccc2c1Oc1c(Cl)c(Cl)c(Cl)c(Cl)c1O2,6.3
7,Clc1cc(Cl)c2c(c1Cl)Oc1cccc(Cl)c1O2,6.1
8,Clc1cc2c(cc1Cl)Oc1c(ccc(Cl)c1Cl)O2,6.38
9,Clc1cc2c(c(Cl)c1Cl)Oc1c(Cl)ccc(Cl)c1O2,6.24
10,Clc1ccc2c(oc3c(Cl)ccc(Cl)c32)c1Cl,6.15
11,Clc1cc2c(c(Cl)c1Cl)Oc1c(Cl)c(Cl)cc(Cl)c1O2,7.59
12,Clc1cc(Cl)c2c(oc3c(Cl)cccc32)c1Cl,6.31
13,Clc1ccc2c(c1)Oc1c(cc(Cl)c(Cl)c1Cl)O2,6.1
14,Clc1ccc2oc3c(Cl)c(Cl)cc(Cl)c3c2c1,6.13
15,Clc1cc(Cl)c2c(c1)Oc1c(cc(Cl)c(Cl)c1Cl)O2,6.53
16,Clc1cc(Cl)c2c(c1)oc1ccc(Cl)c(Cl)c12,6.25
17,Clc1ccc2c(c1)oc1c(Cl)c(Cl)c(Cl)c(Cl)c12,6.53
18,Clc1ccc2oc3c(Cl)c(Cl)c(Cl)c(Cl)c3c2c1,6.79
19,Clc1cc(Cl)c2c(c1)Oc1ccc(Cl)c(Cl)c1O2,6.86
20,Clc1cc2c(oc3ccc(Cl)c(Cl)c32)c(Cl)c1Cl,6.42
21,Clc1cc(Cl)c2c(c1)oc1c(Cl)c(Cl)cc(Cl)c12,6.33
22,Clc1cc(Cl)c2c(c1)oc1c(Cl)cc(Cl)c(Cl)c12,6.19
23,Clc1cc(Cl)c2c(c1Cl)Oc1c(Cl)c(Cl)cc(Cl)c1O2,6.85
24,Clc1cc2c(oc3c(Cl)c(Cl)c(Cl)c(Cl)c32)c(Cl)c1Cl,7.92
25,Clc1cc2c(cc1Cl)Oc1cc(Cl)c(Cl)cc1O2,6.42

row,Compound,logP
1,Clc1ccc2c(c1)oc1c(Cl)c(Cl)c(Cl)cc12,6.06
2,Clc1cc(Cl)c2c(c1)Oc1c(Cl)cc(Cl)cc1O2,6.29
3,Clc1cc(Cl)c2c(oc3c(Cl)ccc(Cl)c32)c1Cl,6.34
4,Clc1cc2oc3cccc(Cl)c3c2c(Cl)c1Cl,6.06
5,Clc1cc(Cl)c2oc3c(Cl)c(Cl)ccc3c2c1,6.25
6,Clc1cc(Cl)c2c(oc3ccc(Cl)c(Cl)c32)c1Cl,6.51
7,Clc1cc(Cl)c2c(c1)Oc1cc(Cl)c(Cl)cc1O2,6.3
8,Clc1cc(Cl)c2c(c1)oc1c(Cl)cc(Cl)cc12,6.37
9,Clc1cc(Cl)c2oc3c(Cl)c(Cl)c(Cl)cc3c2c1,6.59
10,Clc1cc(Cl)c2c(c1Cl)Oc1c(Cl)ccc(Cl)c1O2,6.6
11,Clc1c(Cl)c(Cl)c2c(oc3ccccc32)c1Cl,6.17
12,Clc1ccc2c(c1)Oc1cc(Cl)c(Cl)c(Cl)c1O2,6.1
13,Clc1cc(Cl)c2c(c1)oc1cc(Cl)cc(Cl)c12,6.34
14,Clc1cc2c(c(Cl)c1Cl)Oc1ccc(Cl)c(Cl)c1O2,6.74
15,Clc1ccc2oc3cc(Cl)c(Cl)c(Cl)c3c2c1,6.15
16,Clc1cc(Cl)c2c(c1)oc1cc(Cl)c(Cl)cc12,6.34
17,Clc1ccc2c(oc3ccc(Cl)c(Cl)c32)c1Cl,6.25
18,Clc1cc(Cl)c2oc3c(Cl)cc(Cl)cc3c2c1,6.17
19,Clc1ccc2c(c1)Oc1c(Cl)cc(Cl)c(Cl)c1O2,6.25
20,Clc1cc2oc3c(Cl)cccc3c2c(Cl)c1Cl,6.15
21,Clc1cc2c(oc3c(Cl)cccc32)c(Cl)c1Cl,6.11
22,Clc1cc2c(c(Cl)c1Cl)Oc1c(Cl)cc(Cl)c(Cl)c1O2,7.59
23,Clc1cc2oc3c(Cl)c(Cl)ccc3c2cc1Cl,6.31
24,Clc1ccc(Cl)c2c1oc1c(Cl)ccc(Cl)c12,5.6
25,Clc1cc2c(oc3c(Cl)c(Cl)ccc32)c(Cl)c1Cl,6.47
